Values of other authors, collected in patent publication US6107059A, “Peptide library and screening method” (Affymax Technologies N.V., priority 1992, dated 2000).

Target: streptavidin (Streptomyces avidinii, UniProt P22629)
Conditions: comparison in words, no number given

Sequence of streptavidin (P22629 25-183): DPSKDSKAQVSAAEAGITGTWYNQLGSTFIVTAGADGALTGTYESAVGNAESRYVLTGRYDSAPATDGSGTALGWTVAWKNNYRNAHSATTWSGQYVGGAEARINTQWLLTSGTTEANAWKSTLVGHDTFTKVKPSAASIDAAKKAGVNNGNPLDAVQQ

## N=C1N[C@H]2[C@H](CS[C@H]2CCCCC(=O)O)N1 [iminobiotin]
  Kd for streptavidin, compared with biotin: much lower Kd
